Measured values: US10414811B2, “Protease-resistant lipidated GLP-1 analogs” (MEDIMMUNE LIMITED, priority 2015, dated 2019)
Like-named read-outs stand apart in the source and are kept apart here. Numbered stars: 1 amine (or outer) side, 2 acyl side, 3 side chain; on linkers, the order of the positions; unused ones are H or OH. Square brackets hold non-standard residues; d marks the D form. Side chains are listed from the residue outwards. Peptide text beside a SMILES is read from it. * marks the point of attachment. γGlu = O=C(O)[C@H](CCC(=O)[*:2])N[*:1]; Palmitoyl = CCCCCCCCCCCCCCCC(=O)*; αMeF = C[C@](N)(Cc1ccccc1)C(=O)O; αMeK = C[C@](N)(CCCCN)C(=O)O; Lauroyl = CCCCCCCCCCCC(=O)*; αMeS = C[C@](N)(CO)C(=O)O; AEEA = NCCOCCOCC(=O)O; Aib = CC(C)(N)C(=O)O

Legend:
Format in all cases: cell-based
[1] = target: T1, human glucagon receptor (GCGR) (Homo sapiens, UniProt P47871); assay: cAMP assay, human GCGR cells
T1 construct: expressed in transfected cells
Outline: (§1)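 Peptide-stimulated cAMP measured by two-step HTRF after a 30 min room-temperature incubation with receptor-expressing cells (hGLP-1R, hGIPR at 1×10^5 cells/ml; hGCGR at 2×10^5 cells/ml). Duplicate dilutions; EC50 from 4-parameter logistic fit of % Delta F.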

[2] = target: T2, human GLP-1 receptor (GLP-1R) (Homo sapiens, UniProt P43220); assay: cAMP assay, human GLP-1R cells
T2 construct: expressed in transfected cells
Outline: as §1

[3] = target: T3, human glucose-dependent insulinotropic peptide receptor (GIPR) (Homo sapiens, UniProt P48546); assay: cAMP assay, human GIPR cells
T3 construct: expressed in transfected cells
T3 sequence (P48546 22-466): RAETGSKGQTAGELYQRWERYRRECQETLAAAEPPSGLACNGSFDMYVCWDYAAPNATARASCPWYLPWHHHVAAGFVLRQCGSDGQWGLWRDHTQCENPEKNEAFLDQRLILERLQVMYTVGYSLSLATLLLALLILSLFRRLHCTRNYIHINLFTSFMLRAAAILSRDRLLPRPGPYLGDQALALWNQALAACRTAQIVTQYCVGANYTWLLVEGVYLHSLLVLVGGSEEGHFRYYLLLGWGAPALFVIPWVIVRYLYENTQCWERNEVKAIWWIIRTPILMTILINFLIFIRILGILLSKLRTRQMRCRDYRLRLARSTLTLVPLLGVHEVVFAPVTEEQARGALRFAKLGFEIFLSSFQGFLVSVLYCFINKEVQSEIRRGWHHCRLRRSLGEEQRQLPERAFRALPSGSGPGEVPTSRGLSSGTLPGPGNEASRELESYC
Outline: as §1

[4] = cAMP assay, first determination (n1), read-out: Primary assay EC50 Gluc-R (n1)
[5] = cAMP assay, second determination (n2), read-out: Primary assay EC50 Gluc-R (n2)
[6] = cAMP assay, first determination (n1), read-out: Primary assay EC50 GLP-1R n1
[7] = cAMP assay, second determination (n2), read-out: Primary assay EC50 GLP-1R n2
[8] = mean of n1 and n2, read-out: Mean pM GLP-1R
[9] = cAMP assay, first determination (n1), read-out: Primary assay EC50 GIP-R (n1)
[10] = cAMP assay, second determination (n2), read-out: Primary assay EC50 GIP-R (n2)

T1 sequence (P47871 26-477): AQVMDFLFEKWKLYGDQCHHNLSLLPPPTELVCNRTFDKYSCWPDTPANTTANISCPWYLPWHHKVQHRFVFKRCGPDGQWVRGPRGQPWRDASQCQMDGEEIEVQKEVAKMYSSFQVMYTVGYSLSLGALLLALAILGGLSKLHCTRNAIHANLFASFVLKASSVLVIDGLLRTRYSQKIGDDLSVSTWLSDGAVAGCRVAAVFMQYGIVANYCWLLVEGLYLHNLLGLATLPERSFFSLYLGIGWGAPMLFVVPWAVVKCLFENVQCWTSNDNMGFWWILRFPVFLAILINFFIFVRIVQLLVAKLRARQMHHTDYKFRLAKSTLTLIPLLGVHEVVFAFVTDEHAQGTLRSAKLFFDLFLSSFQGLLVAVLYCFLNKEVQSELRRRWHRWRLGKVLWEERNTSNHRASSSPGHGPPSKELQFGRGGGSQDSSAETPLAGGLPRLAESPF
T2 sequence (P43220 24-463): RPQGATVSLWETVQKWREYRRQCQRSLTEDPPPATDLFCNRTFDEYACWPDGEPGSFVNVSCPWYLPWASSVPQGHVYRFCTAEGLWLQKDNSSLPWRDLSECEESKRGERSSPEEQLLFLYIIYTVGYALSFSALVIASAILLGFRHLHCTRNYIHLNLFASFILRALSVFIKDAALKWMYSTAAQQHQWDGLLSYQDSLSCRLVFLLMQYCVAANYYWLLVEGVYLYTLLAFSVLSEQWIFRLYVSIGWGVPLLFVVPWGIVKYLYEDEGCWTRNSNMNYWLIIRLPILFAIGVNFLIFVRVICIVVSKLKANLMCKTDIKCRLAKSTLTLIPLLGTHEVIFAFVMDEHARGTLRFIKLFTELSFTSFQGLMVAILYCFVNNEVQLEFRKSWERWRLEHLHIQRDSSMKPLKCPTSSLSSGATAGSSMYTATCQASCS

EC50 [1, 4] [nM] | EC50 [1, 5] [nM] | EC50 [2, 6] [pM] | EC50 [2, 7] [pM] | EC50 [2, 8] [pM] | EC50 [3, 9] [nM] | EC50 [3, 10] [nM] | EC50 ([1]; tris-lipidated peptides, second replicate, read-out: Primary assay EC50 Gluc-R (n2)) [nM] | EC50 ([2]; tris-lipidated peptides, mean of n1 and n2, read-out: Primary assay EC50 Mean pM GLP-1R) [pM] | EC50 ([2]; tris-lipidated peptides, replicate n1, read-out: Primary assay EC50 GLP-1R n1) [pM] | EC50 ([2]; tris-lipidated peptides, replicate n2, read-out: Primary assay EC50 GLP-1R n2) [pM] | EC50 ([3]; tris-lipidated peptides, second replicate, read-out: Primary assay EC50 GIP-R (n2)) [nM] | SMILES
≥ 28 | ≥ 28 | 380 | 120 | 251 | ≥ 28 | ≥ 28 |  |  |  |  |  | CCCCCCCCCCCCCCCCCC(=O)NCCCCCC(=O)NCCCC[C@H](NC(=O)[C@@H](NC(=O)[C@@H](NC(=O)[C@](C)(Cc1ccccc1)NC(=O)[C@H](C)NC(=O)[C@@H](NC(=O)[C@](C)(Cc1ccccc1)NC(=O)[C@H](CCC(=O)O)NC(=O)[C@](C)(CCCCN)NC(=O)[C@H](C)NC(=O)[C@H](C)NC(=O)[C@H](CCC(=O)O)NC(=O)CNC(=O)[C@H](CCC(=O)O)NC(=O)[C@H](CC(C)C)NC(=O)[C@](C)(Cc1ccccc1)NC(=O)[C@H](CO)NC(=O)[C@](C)(CO)NC(=O)[C@@H](NC(=O)[C@H](CC(=O)O)NC(=O)[C@H](CO)NC(=O)[C@@H](NC(=O)[C@](C)(Cc1ccccc1)NC(=O)[C@H](CO)NC(=O)CNC(=O)[C@H](CCC(=O)O)NC(=O)C(C)(C)NC(=O)[C@@H](N)Cc1c[nH]cn1)[C@@H](C)O)C(C)C)[C@@H](C)CC)C(C)C)C(C)C)C(=O)NCC(=O)NCC(N)=O [compound 185]
≥ 740 | ≥ 740 | 3300 | 7900 | 5600 | ≥ 740 | ≥ 740 |  |  |  |  |  | CC[C@H](C)[C@H](NC(=O)[C@H](Cc1ccccc1)NC(=O)[C@H](CCC(=O)O)NC(=O)[C@H](CCCCN)NC(=O)[C@H](C)NC(=O)[C@H](C)NC(=O)[C@H](CCC(N)=O)NC(=O)CNC(=O)[C@H](CCC(=O)O)NC(=O)[C@H](CC(C)C)NC(=O)[C@H](Cc1ccc(O)cc1)NC(=O)[C@H](CO)NC(=O)C(C)(C)NC(=O)[C@@H](NC(=O)[C@H](CC(=O)O)NC(=O)C(C)(C)NC(=O)[C@@H](NC(=O)[C@H](Cc1ccccc1)NC(=O)[C@@H](NC(=O)CNC(=O)[C@H](CCC(=O)O)NC(=O)C(C)(C)NC(=O)[C@@H](N)Cc1c[nH]cn1)[C@@H](C)O)[C@@H](C)O)C(C)C)C(=O)N[C@@H](C)C(=O)N[C@@H](Cc1c[nH]c2ccccc12)C(=O)N[C@@H](CC(C)C)C(=O)N[C@H](C(=O)N[C@@H](CCCCN)C(=O)NCC(=O)N[C@@H](CCCNC(=N)N)C(N)=O)C(C)C [compound 24] (H-H[Aib]EGTFT[Aib]DV[Aib]SYLEGQAAKEFIAWLVKGR-NH2)
≥ 28 | ≥ 28 | 81 | 51 | 66.2 | ≥ 28 | ≥ 28 |  |  |  |  |  | CCCCCCCCCCCCCCCCCC(=O)NCCCCCC(=O)NCCCC[C@H](NC(=O)[C@H](C)NC(=O)[C@H](C)NC(=O)[C@H](CCC(=O)O)NC(=O)CNC(=O)[C@H](CCC(=O)O)NC(=O)[C@H](CC(C)C)NC(=O)[C@](C)(Cc1ccccc1)NC(=O)[C@H](CO)NC(=O)[C@](C)(CO)NC(=O)[C@@H](NC(=O)[C@H](CC(=O)O)NC(=O)[C@H](CO)NC(=O)[C@@H](NC(=O)[C@](C)(Cc1ccccc1)NC(=O)[C@H](CO)NC(=O)CNC(=O)[C@H](CCC(=O)O)NC(=O)C(C)(C)NC(=O)[C@@H](N)Cc1c[nH]cn1)[C@@H](C)O)C(C)C)C(=O)N[C@@H](CCC(=O)O)C(=O)N[C@@](C)(Cc1ccccc1)C(=O)N[C@H](C(=O)N[C@@H](C)C(=O)N[C@@](C)(Cc1ccccc1)C(=O)N[C@H](C(=O)N[C@H](C(=O)N[C@@](C)(CCCCN)C(=O)NCC(=O)NCC(N)=O)C(C)C)C(C)C)[C@@H](C)CC [compound 149]
≥ 28 | ≥ 28 | 15 | 21 | 18.2 | ≥ 28 | ≥ 28 |  |  |  |  |  | CCCCCCCCCCCC(=O)N[C@@H](CCC(=O)NCCCC[C@H](NC(=O)[C@H](C)NC(=O)[C@H](C)NC(=O)[C@H](CCC(=O)O)NC(=O)CNC(=O)[C@H](CCC(=O)O)NC(=O)[C@H](CC(C)C)NC(=O)[C@](C)(Cc1ccccc1)NC(=O)[C@H](CO)NC(=O)[C@](C)(CO)NC(=O)[C@@H](NC(=O)[C@H](CC(=O)O)NC(=O)[C@H](CO)NC(=O)[C@@H](NC(=O)[C@](C)(Cc1ccccc1)NC(=O)[C@H](CO)NC(=O)CNC(=O)[C@H](CCC(=O)O)NC(=O)C(C)(C)NC(=O)[C@@H](N)Cc1c[nH]cn1)[C@@H](C)O)C(C)C)C(=O)N[C@@H](CCC(=O)O)C(=O)N[C@@](C)(Cc1ccccc1)C(=O)N[C@H](C(=O)N[C@@H](C)C(=O)N[C@@](C)(Cc1ccccc1)C(=O)N[C@H](C(=O)N[C@H](C(=O)N[C@@](C)(CCCCN)C(=O)NCC(=O)NCC(N)=O)C(C)C)C(C)C)[C@@H](C)CC)C(=O)O [compound 128]
≥ 28 | ≥ 28 | 66 | 140 | 101 | ≥ 28 | ≥ 28 |  |  |  |  |  | CCCCCCCCCCCCCCCC(=O)N[C@@H](CCC(=O)NCCCC[C@H](NC(=O)[C@H](CC(C)C)NC(=O)[C@](C)(Cc1ccccc1)NC(=O)[C@H](CO)NC(=O)[C@](C)(CO)NC(=O)[C@@H](NC(=O)[C@H](CC(=O)O)NC(=O)[C@H](CO)NC(=O)[C@@H](NC(=O)[C@](C)(Cc1ccccc1)NC(=O)[C@H](CO)NC(=O)CNC(=O)[C@H](CCC(=O)O)NC(=O)C(C)(C)NC(=O)[C@@H](N)Cc1c[nH]cn1)[C@@H](C)O)C(C)C)C(=O)NCC(=O)N[C@@H](CCC(=O)O)C(=O)N[C@@H](C)C(=O)N[C@@H](C)C(=O)N[C@@](C)(CCCCN)C(=O)N[C@@H](CCC(=O)O)C(=O)N[C@@](C)(Cc1ccccc1)C(=O)N[C@H](C(=O)N[C@@H](C)C(=O)N[C@@](C)(Cc1ccccc1)C(=O)N[C@H](C(=O)N[C@H](C(=O)N[C@@](C)(CCCCN)C(=O)NCC(=O)NCC(N)=O)C(C)C)C(C)C)[C@@H](C)CC)C(=O)O [compound 85] (H-H[Aib]EGS[αMeF]TSDV[αMeS]S[αMeF]LK([γGlu-Palmitoyl])GEAA[αMeK]E[αMeF]IA[αMeF]VV[αMeK]GG-NH2; N-terminus assumed)
 |  |  |  |  |  |  | 19.7 | 80.9 | 85.7 | 76.1 | 19.7 | CCCCCCCCCCCC(=O)N[C@@H](CCC(=O)NCCOCCOCC(=O)NCCOCCOCC(=O)NCCCC[C@H](NC(=O)CNC(=O)[C@H](CCC(=O)O)NC(=O)[C@H](CCCCNC(=O)COCCOCCNC(=O)COCCOCCNC(=O)CC[C@H](NC(=O)CCCCCCCCCCC)C(=O)O)NC(=O)[C@H](Cc1ccc(O)cc1)NC(=O)[C@H](CO)NC(=O)[C@](C)(CO)NC(=O)[C@@H](NC(=O)[C@H](CC(=O)O)NC(=O)[C@H](CO)NC(=O)[C@@H](NC(=O)[C@](C)(Cc1ccccc1)NC(=O)[C@H](CO)NC(=O)CNC(=O)[C@H](CCC(=O)O)NC(=O)C(C)(C)NC(=O)[C@@H](N)Cc1c[nH]cn1)[C@@H](C)O)C(C)C)C(=O)N[C@@H](C)C(=O)N[C@@H](C)C(=O)N[C@@](C)(CCCCN)C(=O)N[C@@H](CCC(=O)O)C(=O)N[C@@H](Cc1ccccc1)C(=O)N[C@H](C(=O)N[C@@H](CCCCNC(=O)COCCOCCNC(=O)COCCOCCNC(=O)CC[C@H](NC(=O)CCCCCCCCCCC)C(=O)O)C(=O)N[C@@H](Cc1ccccc1)C(=O)N[C@H](C(=O)N[C@H](C(=O)N[C@@H](CCC(=O)O)C(=O)NCC(=O)NCC(N)=O)C(C)C)C(C)C)[C@@H](C)CC)C(=O)O [compound 452] (H-H[Aib]EGS[αMeF]TSDV[αMeS]SYK([AEEA-AEEA-γGlu-Lauroyl])EGK([AEEA-AEEA-γGlu-Lauroyl])AA[αMeK]EFIK([AEEA-AEEA-γGlu-Lauroyl])FVVEGG-NH2; N-terminus assumed)
